The target in one assay is PI3K-p110β (Homo sapiens, UniProt P42338). Put plainly: Biochemical data, PI3K binding potency, PI3K-p110β. An excerpt:
(§1) The following biochemical data have been generated for the exemplified compounds, showing PI3K binding potency.

In a further assay the target is PI3K-p110δ (Homo sapiens, UniProt O00329). Put plainly: Biochemical data, PI3K binding potency, PI3K-p110δ.
Description: as §1

In another assay the target is PI3K-p110α (Homo sapiens, UniProt P42336). The assay can be described thus: Biochemical data, PI3K binding potency, PI3K-p110α.
Description: as §1

Another assay addresses PI3K-p110γ (Homo sapiens, UniProt P48736). Put plainly: Biochemical data, PI3K binding potency, PI3K-p110γ.
Description: as §1

Some results are limits rather than exact numbers.

PI3K-p110δ, sequence (O00329 whole entry): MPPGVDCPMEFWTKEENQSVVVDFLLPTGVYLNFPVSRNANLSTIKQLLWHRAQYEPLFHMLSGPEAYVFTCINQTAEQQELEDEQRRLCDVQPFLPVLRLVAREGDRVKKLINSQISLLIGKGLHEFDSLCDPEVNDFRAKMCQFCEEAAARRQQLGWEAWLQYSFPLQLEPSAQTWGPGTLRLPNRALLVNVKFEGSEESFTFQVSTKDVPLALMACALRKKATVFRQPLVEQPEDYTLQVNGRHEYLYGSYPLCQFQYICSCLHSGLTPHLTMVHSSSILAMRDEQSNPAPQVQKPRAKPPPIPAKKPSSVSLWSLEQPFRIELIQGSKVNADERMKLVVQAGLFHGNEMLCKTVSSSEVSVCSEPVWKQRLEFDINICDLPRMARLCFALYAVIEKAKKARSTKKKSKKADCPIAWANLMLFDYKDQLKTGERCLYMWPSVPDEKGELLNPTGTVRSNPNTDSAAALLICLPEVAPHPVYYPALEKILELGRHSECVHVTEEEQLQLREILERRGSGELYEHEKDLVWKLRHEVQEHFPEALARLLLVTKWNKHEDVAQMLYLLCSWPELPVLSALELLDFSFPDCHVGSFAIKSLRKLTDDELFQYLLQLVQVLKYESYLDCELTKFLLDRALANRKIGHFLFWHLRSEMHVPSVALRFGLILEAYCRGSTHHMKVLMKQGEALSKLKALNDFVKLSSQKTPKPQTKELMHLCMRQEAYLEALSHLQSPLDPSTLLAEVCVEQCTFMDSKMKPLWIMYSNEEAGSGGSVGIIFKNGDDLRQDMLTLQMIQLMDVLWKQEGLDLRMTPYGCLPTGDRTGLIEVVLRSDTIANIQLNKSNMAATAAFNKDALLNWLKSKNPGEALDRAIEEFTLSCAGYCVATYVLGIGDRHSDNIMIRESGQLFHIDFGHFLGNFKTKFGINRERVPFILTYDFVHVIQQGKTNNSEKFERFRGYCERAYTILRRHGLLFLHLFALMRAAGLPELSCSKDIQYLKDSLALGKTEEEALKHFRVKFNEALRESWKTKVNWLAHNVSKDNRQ
PI3K-p110δ, sequence (P27986 whole entry partner): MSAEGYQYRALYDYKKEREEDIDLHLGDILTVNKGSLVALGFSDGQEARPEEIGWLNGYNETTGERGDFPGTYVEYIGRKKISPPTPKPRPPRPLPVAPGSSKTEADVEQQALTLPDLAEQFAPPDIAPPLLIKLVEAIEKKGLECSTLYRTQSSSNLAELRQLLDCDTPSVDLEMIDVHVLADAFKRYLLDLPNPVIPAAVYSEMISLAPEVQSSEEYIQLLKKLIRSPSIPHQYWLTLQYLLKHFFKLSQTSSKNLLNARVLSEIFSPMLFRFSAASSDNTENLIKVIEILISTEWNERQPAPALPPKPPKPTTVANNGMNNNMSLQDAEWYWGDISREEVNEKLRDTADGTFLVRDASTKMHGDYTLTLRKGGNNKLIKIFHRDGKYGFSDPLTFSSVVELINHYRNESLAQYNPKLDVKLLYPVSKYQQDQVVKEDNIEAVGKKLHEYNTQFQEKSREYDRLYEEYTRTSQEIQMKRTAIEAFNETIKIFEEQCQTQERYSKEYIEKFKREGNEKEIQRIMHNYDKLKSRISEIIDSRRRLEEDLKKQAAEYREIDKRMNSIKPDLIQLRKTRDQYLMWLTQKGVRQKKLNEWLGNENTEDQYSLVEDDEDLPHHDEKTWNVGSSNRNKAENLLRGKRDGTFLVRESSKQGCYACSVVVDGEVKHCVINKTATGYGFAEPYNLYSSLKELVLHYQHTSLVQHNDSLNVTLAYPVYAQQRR
PI3K-p110β, sequence (P42338 whole entry): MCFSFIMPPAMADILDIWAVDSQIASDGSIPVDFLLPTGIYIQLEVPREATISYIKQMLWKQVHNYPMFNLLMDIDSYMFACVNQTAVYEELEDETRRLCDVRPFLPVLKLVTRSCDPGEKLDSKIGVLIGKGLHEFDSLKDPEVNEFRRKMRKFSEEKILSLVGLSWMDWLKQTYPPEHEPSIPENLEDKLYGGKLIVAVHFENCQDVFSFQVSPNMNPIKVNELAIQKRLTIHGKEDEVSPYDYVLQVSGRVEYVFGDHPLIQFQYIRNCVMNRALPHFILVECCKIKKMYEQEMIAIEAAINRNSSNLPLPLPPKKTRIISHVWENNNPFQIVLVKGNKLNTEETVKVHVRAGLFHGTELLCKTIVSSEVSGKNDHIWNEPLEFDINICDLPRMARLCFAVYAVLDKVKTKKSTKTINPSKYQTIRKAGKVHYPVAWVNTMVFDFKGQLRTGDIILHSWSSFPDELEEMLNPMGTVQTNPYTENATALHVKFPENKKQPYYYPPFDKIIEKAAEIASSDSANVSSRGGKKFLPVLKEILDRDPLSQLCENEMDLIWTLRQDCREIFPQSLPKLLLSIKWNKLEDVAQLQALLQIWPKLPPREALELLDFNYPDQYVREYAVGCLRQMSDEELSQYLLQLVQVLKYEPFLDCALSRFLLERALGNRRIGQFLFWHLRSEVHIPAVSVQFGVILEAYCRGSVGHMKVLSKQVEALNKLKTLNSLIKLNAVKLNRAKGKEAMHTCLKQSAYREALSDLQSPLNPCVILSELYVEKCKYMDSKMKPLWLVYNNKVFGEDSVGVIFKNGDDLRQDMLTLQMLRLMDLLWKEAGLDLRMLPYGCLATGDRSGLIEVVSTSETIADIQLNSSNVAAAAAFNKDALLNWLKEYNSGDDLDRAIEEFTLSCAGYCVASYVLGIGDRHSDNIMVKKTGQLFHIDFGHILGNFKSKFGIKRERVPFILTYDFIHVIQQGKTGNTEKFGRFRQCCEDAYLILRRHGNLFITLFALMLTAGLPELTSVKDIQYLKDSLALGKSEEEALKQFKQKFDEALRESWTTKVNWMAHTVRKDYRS
PI3K-p110β, sequence (P27986 whole entry partner): as the sequence (P27986 whole entry partner) above
PI3K-p110γ, sequence (P48736 whole entry): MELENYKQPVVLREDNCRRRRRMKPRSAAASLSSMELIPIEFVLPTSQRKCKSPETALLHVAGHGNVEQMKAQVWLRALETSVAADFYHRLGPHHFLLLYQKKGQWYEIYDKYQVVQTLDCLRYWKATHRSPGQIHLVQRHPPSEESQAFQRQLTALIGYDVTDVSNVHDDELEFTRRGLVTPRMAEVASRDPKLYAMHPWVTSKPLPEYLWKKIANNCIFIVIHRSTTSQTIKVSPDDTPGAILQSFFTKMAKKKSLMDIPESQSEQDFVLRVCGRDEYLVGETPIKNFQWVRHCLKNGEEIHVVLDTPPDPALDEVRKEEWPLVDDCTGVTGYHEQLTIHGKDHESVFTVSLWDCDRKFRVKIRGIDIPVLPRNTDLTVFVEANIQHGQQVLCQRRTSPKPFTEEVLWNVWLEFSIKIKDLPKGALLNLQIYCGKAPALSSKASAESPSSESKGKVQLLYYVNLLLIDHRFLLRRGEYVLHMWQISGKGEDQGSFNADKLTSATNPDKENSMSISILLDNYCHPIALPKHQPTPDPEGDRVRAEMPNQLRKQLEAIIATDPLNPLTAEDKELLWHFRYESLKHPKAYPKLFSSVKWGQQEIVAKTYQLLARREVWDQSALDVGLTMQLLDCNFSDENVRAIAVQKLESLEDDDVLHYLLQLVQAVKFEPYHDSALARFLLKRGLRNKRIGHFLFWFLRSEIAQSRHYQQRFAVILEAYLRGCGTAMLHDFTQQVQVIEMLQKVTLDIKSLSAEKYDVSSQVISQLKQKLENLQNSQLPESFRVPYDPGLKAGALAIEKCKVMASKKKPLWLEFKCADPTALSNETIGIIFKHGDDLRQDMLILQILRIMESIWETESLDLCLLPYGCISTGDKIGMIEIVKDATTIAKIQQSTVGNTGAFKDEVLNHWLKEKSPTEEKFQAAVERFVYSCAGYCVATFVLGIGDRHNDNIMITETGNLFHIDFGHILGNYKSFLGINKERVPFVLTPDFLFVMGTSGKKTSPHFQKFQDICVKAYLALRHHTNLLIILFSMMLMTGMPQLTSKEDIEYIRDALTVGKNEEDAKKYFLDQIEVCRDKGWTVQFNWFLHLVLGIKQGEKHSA
PI3K-p110α, sequence (P42336 whole entry): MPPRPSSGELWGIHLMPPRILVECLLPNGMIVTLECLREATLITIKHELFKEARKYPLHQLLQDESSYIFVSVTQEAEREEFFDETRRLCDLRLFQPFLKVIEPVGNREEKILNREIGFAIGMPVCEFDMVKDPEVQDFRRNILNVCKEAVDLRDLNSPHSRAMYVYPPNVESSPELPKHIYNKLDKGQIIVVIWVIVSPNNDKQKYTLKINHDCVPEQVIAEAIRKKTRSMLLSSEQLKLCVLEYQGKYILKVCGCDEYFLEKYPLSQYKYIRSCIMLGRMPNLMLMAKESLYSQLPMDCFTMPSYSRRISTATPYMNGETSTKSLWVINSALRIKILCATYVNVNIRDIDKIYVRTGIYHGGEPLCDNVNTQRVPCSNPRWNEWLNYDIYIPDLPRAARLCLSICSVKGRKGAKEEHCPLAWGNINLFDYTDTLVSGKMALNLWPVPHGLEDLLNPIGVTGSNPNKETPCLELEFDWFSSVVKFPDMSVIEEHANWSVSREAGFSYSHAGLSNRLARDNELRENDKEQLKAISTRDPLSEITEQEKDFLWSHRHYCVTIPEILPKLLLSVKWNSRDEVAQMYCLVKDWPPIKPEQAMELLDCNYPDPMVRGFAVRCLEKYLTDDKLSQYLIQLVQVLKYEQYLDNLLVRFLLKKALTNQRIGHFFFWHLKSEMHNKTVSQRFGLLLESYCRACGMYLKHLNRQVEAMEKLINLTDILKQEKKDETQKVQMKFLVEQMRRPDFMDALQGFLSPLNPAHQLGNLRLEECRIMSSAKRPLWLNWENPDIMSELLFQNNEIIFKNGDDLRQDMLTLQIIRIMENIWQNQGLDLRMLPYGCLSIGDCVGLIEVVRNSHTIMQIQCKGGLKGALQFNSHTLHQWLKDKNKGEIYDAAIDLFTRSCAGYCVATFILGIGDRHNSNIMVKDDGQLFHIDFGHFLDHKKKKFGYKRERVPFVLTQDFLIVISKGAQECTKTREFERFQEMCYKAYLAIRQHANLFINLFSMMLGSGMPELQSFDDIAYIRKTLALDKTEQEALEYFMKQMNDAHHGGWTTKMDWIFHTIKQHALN
PI3K-p110α, sequence (P27986 whole entry partner): as the sequence (P27986 whole entry partner) above

As usually defined, the IC50 is the point on the concentration scale where inhibition reaches its midpoint. A lower IC50 goes with greater potency. With `CN(C)CCCC(=O)Nc1cc(-c2cccc3[nH]ccc23)nc(N2CCOCC2)c1` [B, 4-Dimethylamino-N-[2-(1H-indol-4-yl)-6-morpholin-4-yl-pyridin-4-yl]-butyramide], the IC50 on PI3K-p110β is 247 nM; on PI3K-p110δ, 177 nM; at PI3K-p110α it was not below 10000 nM; at PI3K-p110γ it was not below 10000 nM.
`O=C(CCCN1CCCC1)Nc1cc(-c2cccc3[nH]ccc23)nc(N2CCOCC2)c1` [C, N-[2-(1H-Indol-4-yl)-6-morpholin-4-yl-pyridin-4-yl]-4-pyrrolidin-1-yl-butyramide]: at PI3K-p110δ, the IC50 was determined as 953 nM.

For the origin of these results see US10035785B2, “Phosphoinositide 3-kinase inhibitors” (Karus Therapeutics Limited, priority 2012, dated 2018).
